Earlier results on four compounds are cited in patent US11260097B2, “Immunomodulatory composition to treat and/or prevent COVID-19 illness” (priority 2020, dated 2022).

The conditions of data set [1]: high doses.
The conditions of data set [2]: in vivo.

As to `C[C@@H]1O[C@@H](O[C@H]2[C@H](O[C@H]3CC[C@@]4(C)[C@@H](CC[C@]5(C)[C@@H]4CC=C4[C@@H]6CC(C)(C)CC[C@]6(C(=O)O)CC[C@]45C)[C@]3(C)CO)OC[C@H](O)[C@@H]2O)[C@H](O)[C@H](O)[C@H]1O` [alpha-heridin, alpha-hederin], the water solubility entry is “water soluble”.

With `CC1=CC(=O)C(C(C)C)=CC1=O` [thymoquinone, 2-isopropyl-5-methyl-1,4benzoquinone], the water solubility result is on record as “poor water solubility”. In addition, the toxicity result in data set [1] is “toxicity at high doses”.

With Nigellidine, the “solubility in acid media” value was “soluble in acid media”.

glycophosphopeptical [AM3]: the “onset of clinical improvement in cough, sputum and shortness of breath” value in data set [2] is 3 days.
